Results taken from patent US20250213707A1, “COMPOUND FOR INCREASING EFFICACY OF ONCOLYTIC VIRUSES” (ABLEVIA BIOTECH GMBH, priority 2022, published 2025).

Columns and labels:
[1] = test system: polyclonal antibody ab6982; assay: Epitope mapping of polyclonal antibody ab6982 against cyclic peptides of Ad5 fiber and hexon (peptide array); type: binding, rabbits
From the text: Polyclonal antibody ab6982 (Abcam) was generated by immunizing rabbits with purified AdV. It reacts with all capsid proteins of Ad5 including hexon, fiber and penton. It was shown that the antibody neutralizes Ad5 infection in a bioassay at 1000 adenovirus 5 particles/ml, a 50% inactivation of the adenovirus can be achieved at a 1/25,000 dilution of the antibody. In order to identify epitopic regions that could contain peptides for ab6982 paratope binding, the antibody was mapped against the sequences of fiber (NCBI Reference Sequence: AP 000226.1) and hexon protein (GenBank: BAG48782.1). […] The binding signal of this antibody to the array yielded several peptides that were aligned and clustered against the sequence of the protein. The peptide clusters were named cluster1-7 (fiber protein) and clusters8-16 (hexon protein) according to their ranked order of cyclic peptide hits (i.e. cluster contains the strongest binders, cluster2 the second strongest etc.). Below are the aligments of the corresponding peptides that bind to polyclonal antibody ab6982.

[2] = test system: IgG from human donors (anti-AAV antibodies); assay: Screen for anti-AAV antibodies in human sera, 2452 linear 15-amino-acid AAV peptides on microarrays (Table 1); type: binding; parameters: key to group I: X: the deduplicated aggregate of the respective top 10 peptide hits for each donor was compiled and designated as group I; key to group II: X: the deduplicated aggregate of the respective top 25 peptide hits for each donor was compiled and designated as group II; key to group III: X: the deduplicated aggregate of the respective top 50 peptide hits for each donor was compiled and designated as group III; conditions: human donor IgG binding to linear 15-amino-acid AAV peptides on microarray, fluorescence; for group I: membership in deduplicated aggregate of top 10 peptide hits for each donor; for group II: membership in deduplicated aggregate of top 25 peptide hits for each donor; for group III: membership in deduplicated aggregate of top 50 peptide hits for each donor
In short: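 Peptide hits were grouped I to IV by pooling each donor's top 10, 25, 50 or 250 background-corrected fluorescence signals, after deduplication. Signals came from donor IgG, purified on protein G, bound to arrayed 15-residue linear peptides (2452 total) spanning 16 AAV sequences.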

[3] = cyclic peptides of fiber protein (clusters 1-7)
[4] = cyclic peptides of hexon protein (clusters 8-16)

Substance	antibody binding signal ranking from the microarray experiment [1, 3]	group I [2]	group II [2]	group III [2]	other results
173 (SMSFSWD) [compound 173]	144				
174 (SWDWSGHNYI) [compound 174]	149				
175 (AYSMSFS) [compound 175]	167				
176 (SMSFSWDWSGHNY) [compound 176]	176				
177 (FSWDWSG) [compound 177]	186				
178 (SWDWSGH) [compound 178]	193				
179 (FLDPEYWNFR) [compound 179]	017				
180 (SFLDPEYWNF) [compound 180]	018				
181 (PEYWNFR) [compound 181]	031				
182 (LNNSFLDPEYWNF) [compound 182]	033				
183 (NNSFLDPEYWNFR) [compound 183]	034				
184 (FLDPEYW) [compound 184]	050				
185 (DPEYWNF) [compound 185]	053				
186 (NNSFLDPEYW) [compound 186]	068				
187 (VLLNNSFLDPEYW) [compound 187]	088				
188 (EYWNFRN) [compound 188]	113				
189 (LNNSFLDPEY) [compound 189]	114				
190 (LDPEYWNFRN) [compound 190]	155				
191 (LNNSFLD) [compound 191]	180				
192 (NSFLDPEYWN) [compound 192]	187				

Substance	antibody binding signal ranking from the microarray experiment [1, 3]	group I [2]	group II [2]	group III [2]	other results
193 (SSYTFSY) [compound 193]	042				
194 (FATSSYTFSY) [compound 194]	043				
195 (YINEIFATSSYTF) [compound 195]	055				
196 (SYTFSYI) [compound 196]	064				
197 (ATSSYTF) [compound 197]	080				
198 (EIFATSSYTF) [compound 198]	089				
199 (NEIFATSSYTFSY) [compound 199]	092				
200 (ATSSYTFSYI) [compound 200]	097				
201 (HNYINEIFATSSY) [compound 201]	099				
202 (IFATSSY) [compound 202]	104				
203 (INEIFATSSY) [compound 203]	110				
204 (NYINEIFATSSYT) [compound 204]	119				
205 (YINEIFA) [compound 205]	168				
206 (YTFSYIA) [compound 206]	181				
207 (EIFATSSYTFSYI) [compound 207]	200				
208 (ALEINLEEEDDDN) [compound 208]					antibody binding signal ranking from the microarray experiment [1, 4]: 01
209 (ATALEINLEEEDD) [compound 209]					antibody binding signal ranking from the microarray experiment [1, 4]: 02
210 (EAATALEINLEEE) [compound 210]					antibody binding signal ranking from the microarray experiment [1, 4]: 03
211 (LEINLEE) [compound 211]					antibody binding signal ranking from the microarray experiment [1, 4]: 04
LQQQNTAPQIGTVN (REGION 1..14: note = peptide derived from viral capsid protein) [SEQ ID NO: 1934]		X	X	X	

Substance	antibody binding signal ranking from the microarray experiment [1, 3]	group I [2]	group II [2]	group III [2]	other results
NAADAAALEHDKAY [SEQ ID NO: 1956]		X	X	X	
NPGVAMATHKDDEE [SEQ ID NO: 1957]		X	X	X	
PGAPKPKANQQKQD [SEQ ID NO: 1958]		X	X	X	
PLVDQYLYRFVSTN (REGION 1..14: note = peptide derived from viral capsid protein) [SEQ ID NO: 1938]		X	X	X	
PPQILIKNTPVPAD [SEQ ID NO: 1959]		X	X	X	
PRDWQRLINNNWGF (REGION 1..14: note = peptide derived from viral capsid protein) [SEQ ID NO: 1960]		X	X	X	
PVPADPPTTESQAK [SEQ ID NO: 1931]		X	X	X	
PWGYFDFNRFHCHF (REGION 1..14: note = peptide derived from viral capsid protein) [SEQ ID NO: 1961]		X	X	X	
QLPYVLGSAHQGCL (REGION 1..14: note = peptide derived from viral capsid protein) [SEQ ID NO: 1962]		X	X	X	
QQRVSTTLSQNNNS [SEQ ID NO: 1963]		X	X	X	
SEPRPIGTRYLTRN (REGION 1..14: note = peptide derived from viral capsid protein) [SEQ ID NO: 1964]		X	X	X	
SESVPDPQPLGEPP (REGION 1..14: note = peptide derived from viral capsid protein) [SEQ ID NO: 1922]		X	X	X	
SGGSTNDNTYFGYS [SEQ ID NO: 1965]		X	X	X	
SQSLDRLMNPLIDQ (REGION 1..14: note = peptide derived from viral capsid protein) [SEQ ID NO: 1966]		X	X	X	
TAPGKKRPVDQSPQ (REGION 1..14: note = peptide derived from viral capsid protein) [SEQ ID NO: 1923]		X	X	X	
TESVPDPQPIGEPP (REGION 1..14: note = peptide derived from viral capsid protein) [SEQ ID NO: 1929]		X	X	X	
TGDSESVPDPQPIG [SEQ ID NO: 1967]		X	X	X	
YHLNGRDSLVNPGP (REGION 1..14: note = peptide derived from viral capsid protein) [SEQ ID NO: 1904]		X	X	X	
YYKSTNVDFAVNTE [SEQ ID NO: 1916]		X	X	X	
